Measured values from patent US8168651B2, “Protein kinase modulators” (Cylene Pharmaceuticals, Inc., priority 2008, dated 2012).

Experiments:
recombinant human PIM1 = recombinant human PIM1 (Homo sapiens (Human), UniProt P11309); experiment: PIM-1 kinase activity in cell-free in vitro assay; type: biochemical; conditions: cell-free assay; for inhibition at 0.5 µM: 500 nM compound, read-out: PIM-1: % inh 500 nM
Jurkat = experiment: Cell proliferation modulatory activity, Jurkat; type: cell-based; conditions: Homo sapiens
recombinant human CK2 = recombinant human CK2 (Homo sapiens (Human), UniProt P68400); experiment: CK2 assay (cell-free, 33P-ATP filter plate); type: biochemical; conditions: 500 nM compound, cell-free assay; read-out: CK2: % inh 500 nM
recombinant human CK2, sequence (P68400 whole entry): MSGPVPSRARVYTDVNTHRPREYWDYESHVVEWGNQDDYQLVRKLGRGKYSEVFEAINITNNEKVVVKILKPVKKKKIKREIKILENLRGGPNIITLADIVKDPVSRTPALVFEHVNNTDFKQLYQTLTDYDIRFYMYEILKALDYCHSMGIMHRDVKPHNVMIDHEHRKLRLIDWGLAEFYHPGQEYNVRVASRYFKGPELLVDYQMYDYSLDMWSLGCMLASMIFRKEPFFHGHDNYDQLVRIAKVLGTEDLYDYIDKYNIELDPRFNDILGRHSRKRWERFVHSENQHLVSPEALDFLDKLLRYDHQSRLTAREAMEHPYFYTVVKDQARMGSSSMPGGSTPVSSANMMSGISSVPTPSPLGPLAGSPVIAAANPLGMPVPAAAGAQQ
recombinant human CK2, sequence (P67870 whole entry partner): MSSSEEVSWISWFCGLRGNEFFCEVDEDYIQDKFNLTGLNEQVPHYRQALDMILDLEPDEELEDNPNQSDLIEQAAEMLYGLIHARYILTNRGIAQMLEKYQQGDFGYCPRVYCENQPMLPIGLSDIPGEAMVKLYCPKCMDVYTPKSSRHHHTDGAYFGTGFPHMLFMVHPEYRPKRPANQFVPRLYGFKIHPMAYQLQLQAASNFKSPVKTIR

[1] = test system: HCT-116 human colorectal carcinoma cells; experiment: Cell-proliferation assay using Alamar Blue dye; type: cell-based; conditions: Homo sapiens, HCT-116, second HCT-116 column (c8); read-out: HCT-116 (uM) cell proliferation modulatory activity;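 note: cells exposed to compound for about 4 days, then Alamar Blue added and dye fluorescence read after about 4 h, compared with medium-only control wells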
K-562 = experiment: Cell proliferation modulatory activity, K-562; type: cell-based; conditions: Homo sapiens, K562; K-562 cells
MV-4-11 = experiment: Cell proliferation modulatory activity, MV-4-11; type: cell-based; conditions: Homo sapiens, MV4-11; MV-4-11 cells

recombinant human PIM1, sequence (P11309 whole entry): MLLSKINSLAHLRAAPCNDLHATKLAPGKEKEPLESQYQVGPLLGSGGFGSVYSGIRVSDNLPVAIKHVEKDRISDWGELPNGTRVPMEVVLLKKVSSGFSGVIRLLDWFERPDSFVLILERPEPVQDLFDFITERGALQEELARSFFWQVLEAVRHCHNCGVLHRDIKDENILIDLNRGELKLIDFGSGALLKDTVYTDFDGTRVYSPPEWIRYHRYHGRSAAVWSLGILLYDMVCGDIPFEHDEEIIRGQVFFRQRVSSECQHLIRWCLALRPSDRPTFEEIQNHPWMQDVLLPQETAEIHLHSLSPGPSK

| inhibition at 0.5 µM (recombinant human PIM1) [%] | IC50 (Jurkat) [µM] | inhibition at 0.5 µM (recombinant human CK2) [%] | IC50 [1] [µM] | IC50 (recombinant human PIM1) [µM] | IC50 (K-562) [µM] | IC50 (MV-4-11) [µM] | SMILES |
| --- | --- | --- | --- | --- | --- | --- | --- |
| 29.9 | 4.53 |  |  |  |  |  | CCCNc1ncc2c(n1)c(Nc1ccccc1)nc1cc(C(=O)O)ccc12 |
| 19.8 | 5.8 |  |  |  |  |  | COCCNc1ncc2c(n1)c(Nc1ccccc1)nc1cc(C(=O)O)ccc12 |
| 49.3 | 7.9 |  |  |  |  |  | O=C(O)c1ccc2c(c1)nc(Nc1ccccc1)c1nc(NCCCO)ncc12 |
| 45.6 | 2.67 |  |  |  |  |  | C#Cc1cccc(Nc2nc3cc(C(=O)O)ccc3c3cnc(NCCC)nc23)c1 |
| 41.6 | 3.69 |  |  |  |  |  | C#Cc1cccc(Nc2nc3cc(C(=O)O)ccc3c3cnc(NCCCN4CCOCC4)nc23)c1 |
|  | 2.53 |  |  |  |  |  | O=C(O)c1ccc2c(c1)nc(Nc1cccc(C(F)(F)F)c1)c1ncncc12 |
| 85.7 | 1.14 |  |  |  |  |  | Nc1ncc2c(n1)c(Nc1cccc(Cl)c1)nc1cc(C(=O)O)ccc12 |
|  | 3.06 |  |  |  |  |  | CCNc1ncc2c(n1)c(Nc1cccc(Cl)c1)nc1cc(C(=O)O)ccc12 |
| 38.8 | 4.34 |  |  |  |  |  | Nc1ncc2c(n1)c(Nc1ccc(F)c(Cl)c1)nc1cc(C(=O)O)ccc12 |
| 22.9 | 0.413 |  |  |  |  |  | COCCNc1ncc2c(n1)c(Nc1ccc(F)c(Cl)c1)nc1cc(C(=O)O)ccc12 |
| 2.19 | 0.389 |  |  |  |  |  | C#Cc1cccc(Nc2nc3cc(C(=O)O)ccc3c3cnc(NCCCOCC)nc23)c1 |
| -1.78 | 2.37 |  |  |  |  |  | C#Cc1cccc(Nc2nc3cc(C(=O)O)ccc3c3cnc(NCCCOC(C)C)nc23)c1 |
| -12.6 | 4.41 |  |  |  |  |  | COC(=O)c1ccc2c(c1)nc(Nc1cccc(Cl)c1)c1nc(NCCC(N)=O)ncc12 |
|  | 37.7 |  |  |  |  |  | NC(=O)CCNc1ncc2c(n1)c(Nc1cccc(Cl)c1)nc1cc(C(=O)O)ccc12 |
| 48.9 | 6.02 |  |  |  |  |  | O=C(O)c1ccc2c(c1)nc(Nc1cc(F)cc(F)c1)c1nc(NC3CC3)ncc12 |
| 36.5 | 3.44 |  |  |  |  |  | COc1cccc(Nc2nc3cc(C(=O)O)ccc3c3cnc(NC4CC4)nc23)c1 |
| 53 | 1.25 |  |  |  |  |  | CN(C)CCNc1ncc2c(n1)c(Nc1ccc(F)c(Cl)c1)nc1cc(C(=O)O)ccc12 |
| 76.7 |  | 97.8 | > 10 | 0.365 | > 10 | 5.9 | O=C(O)c1ccc2c(c1)nc(Nc1ccc(Br)cc1)c1ccncc12 |
| 93.9 |  | 101 | > 10 | 0.089 | > 10 | 3.2 | O=C(O)c1ccc2c(c1)nc(Nc1ccc3ncccc3c1)c1ccncc12 |
| 34.8 |  | 89.6 | > 10 |  | > 10 | > 10 | CN(c1cccc(Cl)c1)c1nc2cc(C(=O)O)ccc2c2cnccc12 |
| 75.1 |  | 101 | > 10 | 0.228 | > 10 | > 10 | O=C(O)c1ccc2c(c1)nc(Nc1ccc3cn[nH]c3c1)c1ccncc12 |
| 94.6 |  | 101 | > 10 | 0.096 | > 10 | > 10 | N#Cc1cc(F)cc(Nc2nc3cc(C(=O)O)ccc3c3cnccc23)c1 |
| 19 |  | 65 | > 10 |  | > 10 | 6.15 | CNc1ccc(C#N)cc1Nc1nc2cc(C(=O)O)ccc2c2cnccc12 |
| 42.2 |  | -0.531 | > 10 |  | > 10 | > 10 | O=C(O)c1ccc2c(c1)nc(NCCc1ccccc1)c1cnccc12 |
| 10.8 |  | 1.69 | > 10 |  | > 10 | > 10 | O=C(O)c1ccc2c(c1)nc(Nc1ccc(F)c(Cl)c1)c1cnccc12 |
| -22.8 |  | -40.3 | > 10 |  | > 10 | > 10 | O=C(O)c1ccc2c(c1)nc(Nc1ccccc1)c1cnccc12 |

| inhibition at 0.5 µM (recombinant human PIM1) [%] | IC50 (Jurkat) [µM] | inhibition at 0.5 µM (recombinant human CK2) [%] | IC50 [1] [µM] | IC50 (recombinant human PIM1) [µM] | IC50 (K-562) [µM] | IC50 (MV-4-11) [µM] | SMILES |
| --- | --- | --- | --- | --- | --- | --- | --- |
| 56.8 |  | 15.3 | > 10 | 0.602 | > 10 | > 10 | CN(c1ccccc1)c1nc2cc(C(=O)O)ccc2c2ccncc12 |
| 55.4 |  | 35.8 | > 10 | 0.746 | > 10 | > 10 | O=C(O)c1ccc2c(c1)nc(Nc1cccc(F)c1)c1cnccc12 |
| 46.6 |  | 72.4 | > 10 |  | > 10 | > 10 | C#Cc1cccc(Nc2nc3cc(C(=O)O)ccc3c3ccncc23)c1 |
| 9.61 |  | 69.3 | > 10 |  | > 10 | 5.81 | O=C(O)c1ccc2c(c1)nc(Nc1cccc(Cl)c1)c1nccnc12 |
| -0.602 |  | 36.5 | > 10 |  | > 10 | > 10 | O=C(O)c1ccc2c(c1)nc(Nc1ccc(F)c(Cl)c1)c1nccnc12 |
| -4.59 |  | 85.3 | > 10 |  | > 10 | > 10 | C#Cc1cccc(Nc2nc3cc(C(=O)O)ccc3c3nccnc23)c1 |
| -34.6 |  | 9.01 | 9.97 |  | > 10 | 2.83 | COC(=O)c1ccc2c(c1)nc(NCCn1cccc1)c1ccncc12 |
| 74.5 |  | 99.6 | > 10 | 0.094 | > 10 | > 10 | O=C(O)c1ccc2c(c1)nc(NCCn1cccc1)c1ccncc12 |
| -5.84 |  | -3.68 | > 10 |  | > 10 | > 10 | COC(=O)c1ccc2c(c1)nc(N(C)CCc1ccccn1)c1ccncc12 |
| 3.73 |  | 90.8 | 0.902 |  | 7.2 | 1.54 | CN(CCc1ccccn1)c1nc2cc(C(=O)O)ccc2c2cnccc12 |
| 24.2 |  | 90.9 | > 10 |  | > 10 | 6.42 | COC(=O)c1ccc2c(c1)nc(NCCCOC(C)C)c1ccncc12 |
| 60.8 |  | 98.5 | > 10 | 0.402 | > 10 | 7.01 | CC(C)OCCCNc1nc2cc(C(=O)O)ccc2c2cnccc12 |
| 39.1 |  | 15.6 | > 10 |  | > 10 | 2.94 | COC(=O)c1ccc2c(c1)nc(NCCOC(C)C)c1ccncc12 |
| 48.2 |  | 93 | > 10 |  | > 10 | 9.46 | CC(C)OCCNc1nc2cc(C(=O)O)ccc2c2cnccc12 |
| 17.8 |  | 8.15 | 0.9 |  | 1.25 | 0.368 | COC(=O)c1ccc2c(c1)nc(NCCN1CCCC1)c1ccncc12 |
| 64.5 |  | 98.4 | > 10 | 0.376 | > 10 | 4.13 | O=C(O)c1ccc2c(c1)nc(Nc1cc(F)ccc1Br)c1ccncc12 |
| 64.7 |  | 97.5 | > 10 | 0.321 | > 10 | > 10 | O=C(O)c1ccc2c(c1)nc(Nc1cccc(CO)c1)c1ccncc12 |
| 67.3 |  | 95.6 | > 10 | 0.31 | > 10 | > 10 | N#Cc1ccc(Nc2nc3cc(C(=O)O)ccc3c3cnccc23)cc1 |
| 85 |  | 99.2 | > 10 | 0.093 | > 10 | > 10 | NC(=O)c1cc(F)cc(Nc2nc3cc(C(=O)O)ccc3c3cnccc23)c1 |
| 90.5 |  | 102 | > 10 | 0.09 | > 10 | > 10 | NC(=O)c1cc(Cl)cc(Nc2nc3cc(C(=O)O)ccc3c3cnccc23)c1 |
| 85 |  | 101 | > 10 | 0.122 | > 10 | 3.64 | CCc1cccc(Nc2nc3cc(C(=O)O)ccc3c3cnccc23)c1 |
| 72.4 |  | 99.5 | > 10 | 0.485 | > 10 | 3.16 | CC(C)c1cccc(Nc2nc3cc(C(=O)O)ccc3c3cnccc23)c1 |
| 74.8 |  | 101 | > 10 | 0.16 | > 10 | > 10 | NC(=O)c1cccc(Nc2nc3cc(C(=O)O)ccc3c3cnccc23)c1 |
| 59.3 |  | 98.5 | > 10 | 0.311 | > 10 | > 10 | COc1ccc(Nc2nc3cc(C(=O)O)ccc3c3cnccc23)cc1OC |
| 76 |  | 101 | > 10 | 0.157 | > 10 | 8.87 | O=C(O)c1ccc2c(c1)nc(Nc1ccc3c(c1)OCO3)c1ccncc12 |
| 78.2 |  | -5.09 | > 10 | 0.248 | > 10 | > 10 | NC(=O)c1ccc(Nc2nc3cc(C(=O)O)ccc3c3cnccc23)cc1 |
